According to patent US20250346643A1, “TROPOMYOSIN KINASE RECEPTOR (TRK) LIGANDS AS THERAPEUTICS TO SUPPORT LIVER REGENERATION” (Vanderbilt University, priority 2024, published 2025):

Assays:
CCND1 = experiment: Western blot of CCND1 in AML12 cell lysates; assay type: cell-based, mouse; conditions: AML12 (FIG. 9I-J)
Protocol: Human HepG2 and mouse AML12 cells were grown in 6-well plates. Cells were treated with NTF3 (20 ng/ml) purchased from STEMCELL technologies, Vancouver, Canada (cat. 78074), R&D Systems, Minneapolis, MN (267-N3), Gibco, Waltham, MA (PHC7036) and/or Loxo-195 (5-10 nM) (Selleckchem, Houston, TX; S8636) in complete growth media without L-glutamine for 2 hours. Lyophilized NTF3 was solubilized with sterile filtered PBS supplemented with 0.1% BSA, aliquoted and stored at −80° C. until use. […] HepG2 and AML12 cells were collected on ice in PBS, centrifuged for 10 sec […] cell pellet homogenized in RIPA buffer containing inhibitors (Roche, Basel, Switzerland; complete Mini proteinase inhibitor, 1×HALT phosphatase inhibitors, Thermo Scientific, Waltham, MA; cat. 78428). Cell lysates were sonicated and centrifuged for 10 min at 18,800×g. Protein concentration of supernatants were determined by Direct Detect Spectrophotometer (MilliporeSigma, Burlington, MA).
For immunoblot analysis, 30-50 μg of protein diluted in LSD sample buffer (Invitrogen, Waltham, MA) were analyzed per SDS-PAGE (NuPAGE™, Invitrogen, Waltham, MA) using MOPS buffer or MES buffer (Invitrogen, Waltham, MA). […] Semi-quantitative band densitometry was performed using ImageJ software (version 1.53).

CCND1 and PCNA = experiment: Immunoblotting of mpPHH for CCND1 and PCNA; assay type: cell-based, human; conditions: mpPHHs, NTF3
Protocol: Mouse passaged primary human hepatocytes. Mouse-passaged primary human hepatocytes (mpPHHs) were collected as previously described (Michailidis et al., Proc Natl Acad Sci USA. 2020; 117(3): 1678-1688) and cultured in hepatocyte culture media (CC-3198, Lonza, Basel, Switzerland) in collagen-coated chamber slides. Three days before treatment, mpPHH were incubated in William's E media (with L-glutamine). […] 5-15 images per treatment per experiment were randomly taken and EdU positive nuclei quantified.
Immunoblotting. […] Protein concentration of supernatants was determined by Direct Detect Spectrophotometer (MilliporeSigma, Burlington, MA). […] The protein concentration of supernatants was determined by a Direct Detect® spectrophotometer (MilliporeSigma, Burlington, MA). For immunoblot analysis, 10 to 50 μg of protein diluted in […] sample buffer (Invitrogen, Waltham, MA) were analyzed per SDS-polyacrylamide gel electrophoresis (NuPAGE™, Invitrogen, Waltham, MA) using Mops buffer or MES buffer (Invitrogen, Waltham, MA). […] Semi-quantitative band densitometry was performed using ImageJ software (version 1.53).

Substance: NTF3: neurotrophin-3, recombinant protein; HSC-derived hepatocyte mitogen, ligand of TRKA, TRKB, TRKC
- CCND1 amounts, NTF3 from three different vendors (CCND1): CCND1 amounts increased
- CCND1 and PCNA (immunoblotting) (CCND1 and PCNA): induced CCND1 and PCNA
